Converted amounts (≈) assume the structure as drawn.

The values that follow come from ChEMBL document CHEMBL1139004, “SAR and inhibitor complex structure determination of a novel class of potent and specific Aurora kinase inhibitors” (Bioorg Med Chem Lett, 2006).

Data set [1] can be described thus: Aqueous solubility of the compound.
Data set [2] can be described thus: Percent of unbound ligand in rat plasma. It is filed as ADME, organism-based.
The test system of another data set is MCF7. Kind of data set: Antiproliferative activity against MCF7 cell line. It is filed as functional, cell-based. The settings on record: Homo sapiens.
The next data set concerns the target T1, Aurora kinase A (Homo sapiens, UniProt O14965).
T1 sequence (O14965 whole entry): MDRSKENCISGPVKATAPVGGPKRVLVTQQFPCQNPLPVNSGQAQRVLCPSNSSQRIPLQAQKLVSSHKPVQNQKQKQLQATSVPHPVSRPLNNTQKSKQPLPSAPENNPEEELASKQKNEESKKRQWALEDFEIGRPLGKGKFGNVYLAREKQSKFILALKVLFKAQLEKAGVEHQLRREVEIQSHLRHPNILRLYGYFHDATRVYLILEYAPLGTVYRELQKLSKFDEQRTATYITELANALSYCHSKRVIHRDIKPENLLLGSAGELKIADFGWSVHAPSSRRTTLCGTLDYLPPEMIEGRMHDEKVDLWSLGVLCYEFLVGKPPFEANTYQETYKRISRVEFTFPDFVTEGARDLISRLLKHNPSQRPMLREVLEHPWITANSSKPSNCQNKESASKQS
In words: Inhibitory activity against Aurora A.

Data set [3] is described as follows: Distribution coefficient of the compound, log D at pH 7.4. It counts as physicochemical. The conditions noted are these: octanol/water.

As usually defined, the solubility is the dissolved amount per volume that the medium holds. The term fraction unbound denotes free concentration divided by total concentration. Lower therefore signals little free substance. A word on the IC50: it is the midpoint of a concentration-inhibition curve. The low end stands for inhibition by little substance, the high end for a need for much substance. The molecule `COc1cc2c(Nc3ccc(NC(=O)c4ccccc4)cc3)ncnc2cc1OCCCN1CCOCC1` came in with a solubility in data set [1] of 2.5 µM (≈ 1.28 µg/mL). The fraction unbound in data set [2] was 0.003. Also, in the data set with MCF7, the midpoint of inhibition, the IC50, lay at 198 nM. Take `COc1cc2c(Nc3cnc(NC(=O)c4ccc(C)c(Br)c4)nc3)ncnc2cc1OCCCN1CCOCC1`: half-maximal inhibition at Aurora kinase A (IC50) required 70 nM. This counts as double-digit nanomolar. Still for that read-out and setting: to `COc1cc2c(Nc3cnc(NC(=O)c4ccncc4)nc3)ncnc2cc1OCCCN1CCOCC1` belongs 690 nM. For the molecule `COc1cc2c(Nc3cnc(NC(=O)c4cccc(Cl)c4)nc3)ncnc2cc1OCCCN1CCCCC1`, the solubility in data set [1] was 3600 µM (≈ 1970 µg/mL). Moreover, the IC50 against Aurora kinase A was found to be 0.8 nM; in the data set on MCF7, 24 nM. On Aurora kinase A, `CCc1ccc(C(=O)Nc2ncc(Nc3ncnc4cc(OCCCN5CCOCC5)c(OC)cc34)cn2)cc1` yielded an IC50 of 85 nM.

At Aurora kinase A, `CCCCC(=O)Nc1ncc(Nc2ncnc3cc(OCCCN4CCOCC4)c(OC)cc23)cn1` displayed a 50% inhibitory concentration (IC50) of 17 nM. Turning to `COc1cc2c(Nc3cnc(NC(=O)c4cccc(Cl)c4)nc3)ncnc2cc1OCCCN1CCOCC1`, the IC50 at Aurora kinase A was below 0.1 nM; in the data set with MCF7, 80 nM. Molecule `COc1cc2c(Nc3ncc(NC(=O)c4ccccc4)cn3)ncnc2cc1OCCCN1CCOCC1` registered an IC50 at Aurora kinase A of 629 nM. On the same count and under the same terms, to `CCCN(CCC)S(=O)(=O)c1ccc(C(=O)Nc2ncc(Nc3ncnc4cc(OCCCN5CCOCC5)c(OC)cc34)cn2)cc1` belongs 3900 nM. In general, logD refers to lipophilicity at a set pH, counting ionised and neutral species. Low readings indicate a more hydrophilic compound, high ones a more lipophilic compound. Take `COc1cc2c(Nc3cnc(NC(=O)c4ccccc4)nc3)ncnc2cc1OCCCN1CCOCC1`: the logD in data set [3] came out at 2.7. Besides, the fraction unbound in data set [2] stood at 0.045. In addition, the figures for the IC50 against Aurora kinase A and in the data set on MCF7 were 3 nM and 210 nM, respectively. For the molecule `COc1cc2c(Nc3cnc(NC(=O)c4ccc(F)c(Cl)c4)nc3)ncnc2cc1OCCCN1CCOCC1`, the fraction unbound in data set [2] was determined as 0.004. Besides, the IC50 came out at 0.15 nM at Aurora kinase A and 20 nM with MCF7. As to `COc1cc2c(Nc3cnc(NC(=O)c4ccccc4)nc3)ncnc2cc1OC[C@@H](O)CN1CCCCC1`, the solubility in data set [1] was determined as 1500 µM (≈ 794 µg/mL).

For `COc1cc2ncnc(Nc3ccc(NC(=O)c4ccccc4)cc3)c2cc1OC` [ANILINOQUINAZOLINE1], the logD in data set [3] was found to be 3.7. Also, the IC50 against Aurora kinase A was 393 nM; with MCF7, 1250 nM.
